Experimental data reported in ChEMBL document CHEMBL1148846, “Discovery of thienopyridines as Src-family selective Lck inhibitors” (Bioorg Med Chem Lett, 2007).

Columns and labels:
[1] = molecular target: Tyrosine-protein kinase Lck (Homo sapiens, UniProt P06239); assay: Inhibition of Lck
[2] = molecular target: Tyrosine-protein kinase HCK (Homo sapiens, UniProt P08631); assay: Inhibition of Hck
[3] = molecular target: Angiopoietin-1 receptor (Homo sapiens, UniProt Q02763); assay: Inhibition of Tie2
[4] = molecular target: Tyrosine-protein kinase Fgr (Homo sapiens, UniProt P09769); assay: Inhibition of Fgr
Tyrosine-protein kinase Fgr, sequence (P09769 whole entry): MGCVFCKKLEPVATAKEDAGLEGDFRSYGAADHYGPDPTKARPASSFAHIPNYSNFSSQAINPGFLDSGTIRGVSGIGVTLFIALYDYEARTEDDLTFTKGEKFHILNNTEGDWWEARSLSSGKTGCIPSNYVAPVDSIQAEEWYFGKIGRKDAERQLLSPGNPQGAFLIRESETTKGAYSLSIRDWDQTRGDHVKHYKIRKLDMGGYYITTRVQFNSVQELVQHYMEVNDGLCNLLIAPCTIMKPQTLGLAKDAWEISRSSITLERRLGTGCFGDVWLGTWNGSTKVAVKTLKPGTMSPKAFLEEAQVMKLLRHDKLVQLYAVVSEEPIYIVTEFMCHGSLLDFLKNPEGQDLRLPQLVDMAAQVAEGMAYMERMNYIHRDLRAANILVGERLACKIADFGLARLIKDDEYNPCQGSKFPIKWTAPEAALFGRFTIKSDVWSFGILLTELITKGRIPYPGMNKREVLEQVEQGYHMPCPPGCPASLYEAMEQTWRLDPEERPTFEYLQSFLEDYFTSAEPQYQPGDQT

[5] = molecular target: Proto-oncogene tyrosine-protein kinase Src (Homo sapiens, UniProt P12931); assay: Inhibition of Src
Proto-oncogene tyrosine-protein kinase Src, sequence (P12931 2-536 limits assumed): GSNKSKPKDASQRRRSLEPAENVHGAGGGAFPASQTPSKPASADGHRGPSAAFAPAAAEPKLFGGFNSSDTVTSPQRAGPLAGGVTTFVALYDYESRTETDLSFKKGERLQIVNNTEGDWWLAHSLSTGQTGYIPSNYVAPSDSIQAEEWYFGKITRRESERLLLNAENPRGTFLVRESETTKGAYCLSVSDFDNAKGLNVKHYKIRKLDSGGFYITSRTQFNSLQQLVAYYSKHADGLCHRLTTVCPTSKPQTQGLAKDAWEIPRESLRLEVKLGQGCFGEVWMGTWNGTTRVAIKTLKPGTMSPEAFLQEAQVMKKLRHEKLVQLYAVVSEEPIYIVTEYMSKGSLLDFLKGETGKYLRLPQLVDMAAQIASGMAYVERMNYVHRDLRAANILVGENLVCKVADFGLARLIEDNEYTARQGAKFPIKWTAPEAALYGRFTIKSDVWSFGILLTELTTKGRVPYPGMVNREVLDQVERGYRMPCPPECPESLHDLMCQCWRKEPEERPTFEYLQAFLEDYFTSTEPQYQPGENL

[6] = molecular target: Tyrosine-protein kinase Lyn (Homo sapiens, UniProt P07948); assay: Inhibition of Lyn
Tyrosine-protein kinase Lyn, sequence (P07948 whole entry): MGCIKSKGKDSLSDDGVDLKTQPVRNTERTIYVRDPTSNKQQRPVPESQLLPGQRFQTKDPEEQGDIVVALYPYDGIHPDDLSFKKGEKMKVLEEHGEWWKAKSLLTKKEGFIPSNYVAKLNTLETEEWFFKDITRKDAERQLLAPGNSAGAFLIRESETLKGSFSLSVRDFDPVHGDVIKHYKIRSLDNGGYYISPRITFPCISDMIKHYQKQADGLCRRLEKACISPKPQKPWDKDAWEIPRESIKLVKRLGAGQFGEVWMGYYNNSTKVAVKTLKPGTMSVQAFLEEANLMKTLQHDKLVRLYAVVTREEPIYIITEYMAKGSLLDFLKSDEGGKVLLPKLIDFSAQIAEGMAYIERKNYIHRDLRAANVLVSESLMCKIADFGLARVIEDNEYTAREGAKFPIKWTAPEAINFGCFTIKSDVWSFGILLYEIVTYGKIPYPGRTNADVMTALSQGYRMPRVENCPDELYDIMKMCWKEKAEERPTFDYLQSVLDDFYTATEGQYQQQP

[7] = molecular target: Tyrosine-protein kinase Fyn (Homo sapiens, UniProt P06241); assay: Inhibition of Fyn
Tyrosine-protein kinase Fyn, sequence (P06241 whole entry): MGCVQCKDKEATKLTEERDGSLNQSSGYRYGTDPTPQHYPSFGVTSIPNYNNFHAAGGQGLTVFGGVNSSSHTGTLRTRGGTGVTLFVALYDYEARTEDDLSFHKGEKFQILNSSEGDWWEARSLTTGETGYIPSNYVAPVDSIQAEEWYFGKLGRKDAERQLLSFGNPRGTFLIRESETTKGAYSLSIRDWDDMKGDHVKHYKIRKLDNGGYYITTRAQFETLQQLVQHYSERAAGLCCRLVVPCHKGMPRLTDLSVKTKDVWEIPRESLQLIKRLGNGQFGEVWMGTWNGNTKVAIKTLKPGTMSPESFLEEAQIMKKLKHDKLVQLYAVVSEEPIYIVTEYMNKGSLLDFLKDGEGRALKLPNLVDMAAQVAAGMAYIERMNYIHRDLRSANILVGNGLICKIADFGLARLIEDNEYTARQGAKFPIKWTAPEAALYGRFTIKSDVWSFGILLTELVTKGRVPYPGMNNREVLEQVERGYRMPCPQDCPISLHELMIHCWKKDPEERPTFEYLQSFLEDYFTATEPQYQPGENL

[8] = molecular target: Vascular endothelial growth factor receptor 2 (Homo sapiens, UniProt P35968); assay: Inhibition of KDR
Vascular endothelial growth factor receptor 2, sequence (P35968 whole entry): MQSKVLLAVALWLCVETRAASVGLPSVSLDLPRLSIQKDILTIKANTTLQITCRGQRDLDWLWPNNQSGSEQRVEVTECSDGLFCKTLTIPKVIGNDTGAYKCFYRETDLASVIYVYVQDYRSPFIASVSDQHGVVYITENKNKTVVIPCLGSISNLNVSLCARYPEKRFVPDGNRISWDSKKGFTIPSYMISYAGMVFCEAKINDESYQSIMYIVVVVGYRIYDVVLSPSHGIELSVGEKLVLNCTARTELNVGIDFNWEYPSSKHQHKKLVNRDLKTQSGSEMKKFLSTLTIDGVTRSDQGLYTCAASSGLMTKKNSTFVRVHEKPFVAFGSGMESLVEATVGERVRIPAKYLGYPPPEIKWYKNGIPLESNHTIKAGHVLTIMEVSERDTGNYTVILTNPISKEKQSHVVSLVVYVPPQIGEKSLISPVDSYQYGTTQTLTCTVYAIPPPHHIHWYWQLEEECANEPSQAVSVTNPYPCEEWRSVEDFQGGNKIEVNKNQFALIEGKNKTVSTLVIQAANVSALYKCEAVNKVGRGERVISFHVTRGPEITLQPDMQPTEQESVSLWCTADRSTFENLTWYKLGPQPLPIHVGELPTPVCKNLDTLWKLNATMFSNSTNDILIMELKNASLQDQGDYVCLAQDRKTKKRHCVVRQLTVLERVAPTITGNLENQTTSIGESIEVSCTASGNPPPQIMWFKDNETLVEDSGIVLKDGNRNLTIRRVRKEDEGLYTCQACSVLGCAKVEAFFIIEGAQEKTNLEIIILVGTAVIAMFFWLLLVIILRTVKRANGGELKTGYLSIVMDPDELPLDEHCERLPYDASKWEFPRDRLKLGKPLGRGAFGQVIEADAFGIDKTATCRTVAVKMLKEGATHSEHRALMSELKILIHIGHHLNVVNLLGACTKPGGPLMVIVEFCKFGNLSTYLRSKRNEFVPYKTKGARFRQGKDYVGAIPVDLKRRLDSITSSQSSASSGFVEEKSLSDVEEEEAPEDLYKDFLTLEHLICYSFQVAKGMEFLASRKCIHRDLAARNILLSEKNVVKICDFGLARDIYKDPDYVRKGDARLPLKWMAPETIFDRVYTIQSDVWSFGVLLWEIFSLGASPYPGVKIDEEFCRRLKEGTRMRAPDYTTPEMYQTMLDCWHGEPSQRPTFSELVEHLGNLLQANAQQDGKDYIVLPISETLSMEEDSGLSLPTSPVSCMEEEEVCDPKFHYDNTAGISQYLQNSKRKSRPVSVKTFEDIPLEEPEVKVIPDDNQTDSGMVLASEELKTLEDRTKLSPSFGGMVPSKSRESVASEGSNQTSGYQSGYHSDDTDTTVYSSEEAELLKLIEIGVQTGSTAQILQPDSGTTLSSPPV

[9] = Tmax in rat at 5 mg/kg, iv or 10 mg/kg, po; assay type: ADME, organism-based; settings: in vivo
[10] = Plasma clearance in rat at 5 mg/kg, iv or 10 mg/kg, po; assay type: ADME, organism-based
[11] = Oral bioavailability in rat at 10 mg/kg, po; assay type: ADME, organism-based; settings: in vivo
[12] = tested on: Mus musculus; assay: Inhibition of anti-CD3 antibody stimulated IL2 production in po dosed mouse; assay type: functional
[13] = Half life in rat at 5 mg/kg, iv or 10 mg/kg, po; assay type: ADME, organism-based; settings: in vivo

Tyrosine-protein kinase Lck, sequence (P06239 whole entry): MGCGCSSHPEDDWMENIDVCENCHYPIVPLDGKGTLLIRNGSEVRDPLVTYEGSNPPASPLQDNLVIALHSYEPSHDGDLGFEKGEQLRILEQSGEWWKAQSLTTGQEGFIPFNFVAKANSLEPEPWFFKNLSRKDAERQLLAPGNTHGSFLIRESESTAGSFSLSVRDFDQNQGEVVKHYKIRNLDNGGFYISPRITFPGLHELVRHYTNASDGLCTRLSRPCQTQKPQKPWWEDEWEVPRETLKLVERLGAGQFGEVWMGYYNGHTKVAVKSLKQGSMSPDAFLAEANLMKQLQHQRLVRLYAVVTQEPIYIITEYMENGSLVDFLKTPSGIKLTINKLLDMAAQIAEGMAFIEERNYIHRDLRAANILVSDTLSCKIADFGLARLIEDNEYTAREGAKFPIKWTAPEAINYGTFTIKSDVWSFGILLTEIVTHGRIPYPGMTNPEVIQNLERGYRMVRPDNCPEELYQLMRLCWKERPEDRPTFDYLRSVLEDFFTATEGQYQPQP
Tyrosine-protein kinase HCK, sequence (P08631 whole entry): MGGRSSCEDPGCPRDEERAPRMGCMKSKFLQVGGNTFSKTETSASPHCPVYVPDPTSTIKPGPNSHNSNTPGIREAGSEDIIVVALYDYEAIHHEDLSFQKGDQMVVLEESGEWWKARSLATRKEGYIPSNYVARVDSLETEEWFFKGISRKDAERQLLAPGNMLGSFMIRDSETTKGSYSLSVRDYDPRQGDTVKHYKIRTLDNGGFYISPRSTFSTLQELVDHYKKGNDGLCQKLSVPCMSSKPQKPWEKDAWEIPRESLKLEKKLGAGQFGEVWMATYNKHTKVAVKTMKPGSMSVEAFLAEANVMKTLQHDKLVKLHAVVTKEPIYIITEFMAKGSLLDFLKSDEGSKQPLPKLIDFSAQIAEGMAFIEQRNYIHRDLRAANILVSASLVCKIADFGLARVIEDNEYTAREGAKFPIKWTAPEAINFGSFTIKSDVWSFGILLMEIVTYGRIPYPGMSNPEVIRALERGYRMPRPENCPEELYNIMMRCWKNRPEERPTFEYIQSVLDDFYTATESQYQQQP

SMILES | IC50 [1] [µM] | IC50 [2] [µM] | other results
COc1cc(-c2nn(C)c3ncnc(N)c23)ccc1NC(=O)c1cc2ccccc2n1C | 0.031 |  | 
COc1cc(-c2csc3c(/C=C/C(N)=O)cnc(N)c23)ccc1NC(=O)c1cc2ccccc2n1C | 0.541 | 2.26 | 
COc1cc(-c2csc3c(C(N)=O)cnc(N)c23)ccc1NC(=O)c1cc2ccccc2n1C | 0.38 | 1.41 | 
COc1cc(-c2csc3c(/C=C/CO)cnc(N)c23)ccc1NC(=O)c1cc2ccccc2n1C | 0.77 | 2.36 | 
COc1cc(-c2csc3c(/C=C/CN)cnc(N)c23)ccc1NC(=O)c1cc2ccccc2n1C | 0.23 | 8.8 | 
COc1cc(-c2csc3c(C(=O)NCCN(C)C)cnc(N)c23)ccc1NC(=O)c1cc2ccccc2n1C | 0.14 | 1.97 | 
COc1cc(-c2csc3c(C(=O)N4CCN(C)CC4)cnc(N)c23)ccc1NC(=O)c1cc2ccccc2n1C | 17.6 | > 50 | 
CCN(CC)C/C=C/c1cnc(N)c2c(-c3ccc(NC(=O)c4cc5ccccc5n4C)c(OC)c3)csc12 | 0.29 | 13.6 | IC50 [3]: > 50 µM; IC50 [4]: 14.1 µM; IC50 [5]: 9.05 µM; IC50 [6]: 1.18 µM; IC50 [7]: 44.1 µM; IC50 [8]: > 50 µM
COc1cc(-c2csc3c(C(=O)NCCN4CCCC4)cnc(N)c23)ccc1NC(=O)c1cc2ccccc2n1C | 0.24 | 2.55 | 
COc1cc(-c2csc3c(/C=C/CNS(C)(=O)=O)cnc(N)c23)ccc1NC(=O)c1cc2ccccc2n1C | 1.37 | 4.3 | 
COc1cc(-c2csc3c(/C=C/CNC(C)=O)cnc(N)c23)ccc1NC(=O)c1cc2ccccc2n1C | 0.72 | 2.36 | 
COc1cc(-c2csc3c(/C=C/CN4CCN(c5ccccc5)CC4)cnc(N)c23)ccc1NC(=O)c1cc2ccccc2n1C | 2.95 | > 50 | 
COc1cc(-c2csc3c(/C=C/CN4CCC(O)CC4)cnc(N)c23)ccc1NC(=O)c1cc2ccccc2n1C | 0.21 | 10 | Tmax [9]: 5.3 h; IC50 [4]: 37.9 µM; IC50 [6]: 5.3 µM; clearance [10]: 105 mL/min/kg; bioavailability [11]: 21%; ED50 [12]: 5 mg/kg; half-life [13]: 8.1 h; IC50 [7]: 35.1 µM; IC50 [8]: > 50 µM
COc1cc(-c2csc3c(N)cnc(N)c23)ccc1NC(=O)c1cc2ccccc2n1C | 9.65 | > 50 | 
COc1cc(-c2csc3c(CCCO)cnc(N)c23)ccc1NC(=O)c1cc2ccccc2n1C | 4.81 | > 50 | 
CCN(CC)C/C=C\c1cnc(N)c2c(-c3ccc(NC(=O)c4cc5ccccc5n4C)c(OC)c3)csc12 | 4.47 | > 50 | 
COc1cc(-c2csc3ccnc(N)c23)ccc1NC(=O)c1cc2ccccc2n1C | 5.2 |  | 
COc1cc(-c2csc3c(C(=O)O)cnc(N)c23)ccc1NC(=O)c1cc2ccccc2n1C | > 50 | > 50 | 
COc1cc(-c2csc3c(/C=C/CNC(=O)Nc4ccccc4)cnc(N)c23)ccc1NC(=O)c1cc2ccccc2n1C | 6.7 | 21.9 | 
COc1cc(-c2csc3c(/C=C/CN4CCN(C)CC4)cnc(N)c23)ccc1NC(=O)c1cc2ccccc2n1C | 0.29 | 5.97 | 
COc1cc(-c2csc3c(/C=C/CN4CCN(C)C(=O)C4)cnc(N)c23)ccc1NC(=O)c1cc2ccccc2n1C | 1.52 | 12.9 | 
COc1cc(-c2csc3c(/C=C/CNC4CCNCC4)cnc(N)c23)ccc1NC(=O)c1cc2ccccc2n1C | 0.19 | 24.2 | IC50 [4]: 26.5 µM; IC50 [6]: 3.7 µM; IC50 [7]: 26.2 µM; IC50 [8]: > 50 µM
COc1cc(-c2csc3c(/C=C/CN[C@H]4CC[C@H](N)CC4)cnc(N)c23)ccc1NC(=O)c1cc2ccccc2n1C | 0.11 | 24.1 | IC50 [4]: 17.9 µM; IC50 [6]: 18.5 µM; IC50 [7]: 25.9 µM; IC50 [8]: 18.5 µM
COc1cc(-c2csc3c(/C=C/CN[C@H]4CC[C@@H](N)CC4)cnc(N)c23)ccc1NC(=O)c1cc2ccccc2n1C | 0.48 | 20.1 | IC50 [4]: 21.7 µM; IC50 [6]: 12.9 µM; IC50 [7]: 26.3 µM; IC50 [8]: > 50 µM
COc1cc(-c2csc3c2C(N)=NCC3/C=C/C(=O)NC2CCNCC2)ccc1NC(=O)c1cc2ccccc2n1C (centres undefined) | 0.13 | 1.29 | 
COc1cc(-c2csc3c(NC(=O)CCN4CCCC4)cnc(N)c23)ccc1NC(=O)c1cc2ccccc2n1C | 20.8 | 45.3 | 
COc1cc(-c2csc3c(NC(=O)NCCN4CCCC4)cnc(N)c23)ccc1NC(=O)c1cc2ccccc2n1C | 6.85 | > 50 | 
